Experiment [1] has as its target GCN2 kinase (Homo sapiens, UniProt Q9P2K8). As to the kind of experiment: GCN2 enzyme inhibition assay (Transcreener ADP2 fluorescence polarization). Format: biochemical. The note with it: 280 μM ATP. The procedure, abridged:
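Kinase activity is followed as ADP formation, measured by fluorescence polarization, using 4 nM enzyme with 280 μM ATP and 200 μM (RS)7 peptide at pH 7.5 and 25 °C for 1 h. Values come from a non-linear tight-binding fit.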
(In general: Polarisation of emitted light reports the rotation of a fluorescent probe.)

Experiment [2] deals with intracellular GCN2 (phosphorylation of the GCN2 substrate eIF2α) (Homo sapiens, UniProt Q9P2K8). In words: GCN2 cellular inhibition assay (AlphaScreen SureFire P-eIF2α Ser51, borrelidin-treated U2OS cells). Format: cell-based. The procedure, abridged:
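U2OS cells adhered overnight, then treated with compounds (4-fold serial dilutions from 40 μM final) plus borrelidin 10 μM final for 1 h at 37 °C. Lysate eIF2α Ser51 phosphorylation measured by AlphaScreen SureFire. Percent inhibition calculated relative to borrelidin-only wells.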
A general note: In Alpha technology, singlet oxygen from a donor bead excites a nearby acceptor bead.

[3] abbreviates: Enzyme activity for compounds of Formula IV, Ki(app), 25° C.
[4] abbreviates: compounds of Formula IV, biomarker assay, phosphorylated eIF2α Ser51 in borrelidin-treated U2OS cells.
[5] abbreviates: compounds of Formula II, 4 nM GCN2 kinase.
The mark [6] stands for this setting: compounds of Formula II, biomarker assay, phosphorylated eIF2α Ser51 in borrelidin-treated U2OS cells.
Where [7] appears, read: compounds of Formula III, 4 nM GCN2 kinase.
[8] abbreviates: compounds of Formula III, U2OS cells, 10 μM borrelidin, 1 h, read-out: GCN2 Biomarker (IC50).
Setting [9] is: compounds of Formula V, 4 nM GCN2 kinase.
The mark [10] stands for this setting: compounds of Formula V, U2OS cells, 10 μM borrelidin, 1 h, read-out: GCN2 Biomarker (IC50).

Like-named read-outs stand apart in the source and are kept apart here.

intracellular GCN2 (phosphorylation of the GCN2 substrate eIF2α), sequence (Q9P2K8 whole entry): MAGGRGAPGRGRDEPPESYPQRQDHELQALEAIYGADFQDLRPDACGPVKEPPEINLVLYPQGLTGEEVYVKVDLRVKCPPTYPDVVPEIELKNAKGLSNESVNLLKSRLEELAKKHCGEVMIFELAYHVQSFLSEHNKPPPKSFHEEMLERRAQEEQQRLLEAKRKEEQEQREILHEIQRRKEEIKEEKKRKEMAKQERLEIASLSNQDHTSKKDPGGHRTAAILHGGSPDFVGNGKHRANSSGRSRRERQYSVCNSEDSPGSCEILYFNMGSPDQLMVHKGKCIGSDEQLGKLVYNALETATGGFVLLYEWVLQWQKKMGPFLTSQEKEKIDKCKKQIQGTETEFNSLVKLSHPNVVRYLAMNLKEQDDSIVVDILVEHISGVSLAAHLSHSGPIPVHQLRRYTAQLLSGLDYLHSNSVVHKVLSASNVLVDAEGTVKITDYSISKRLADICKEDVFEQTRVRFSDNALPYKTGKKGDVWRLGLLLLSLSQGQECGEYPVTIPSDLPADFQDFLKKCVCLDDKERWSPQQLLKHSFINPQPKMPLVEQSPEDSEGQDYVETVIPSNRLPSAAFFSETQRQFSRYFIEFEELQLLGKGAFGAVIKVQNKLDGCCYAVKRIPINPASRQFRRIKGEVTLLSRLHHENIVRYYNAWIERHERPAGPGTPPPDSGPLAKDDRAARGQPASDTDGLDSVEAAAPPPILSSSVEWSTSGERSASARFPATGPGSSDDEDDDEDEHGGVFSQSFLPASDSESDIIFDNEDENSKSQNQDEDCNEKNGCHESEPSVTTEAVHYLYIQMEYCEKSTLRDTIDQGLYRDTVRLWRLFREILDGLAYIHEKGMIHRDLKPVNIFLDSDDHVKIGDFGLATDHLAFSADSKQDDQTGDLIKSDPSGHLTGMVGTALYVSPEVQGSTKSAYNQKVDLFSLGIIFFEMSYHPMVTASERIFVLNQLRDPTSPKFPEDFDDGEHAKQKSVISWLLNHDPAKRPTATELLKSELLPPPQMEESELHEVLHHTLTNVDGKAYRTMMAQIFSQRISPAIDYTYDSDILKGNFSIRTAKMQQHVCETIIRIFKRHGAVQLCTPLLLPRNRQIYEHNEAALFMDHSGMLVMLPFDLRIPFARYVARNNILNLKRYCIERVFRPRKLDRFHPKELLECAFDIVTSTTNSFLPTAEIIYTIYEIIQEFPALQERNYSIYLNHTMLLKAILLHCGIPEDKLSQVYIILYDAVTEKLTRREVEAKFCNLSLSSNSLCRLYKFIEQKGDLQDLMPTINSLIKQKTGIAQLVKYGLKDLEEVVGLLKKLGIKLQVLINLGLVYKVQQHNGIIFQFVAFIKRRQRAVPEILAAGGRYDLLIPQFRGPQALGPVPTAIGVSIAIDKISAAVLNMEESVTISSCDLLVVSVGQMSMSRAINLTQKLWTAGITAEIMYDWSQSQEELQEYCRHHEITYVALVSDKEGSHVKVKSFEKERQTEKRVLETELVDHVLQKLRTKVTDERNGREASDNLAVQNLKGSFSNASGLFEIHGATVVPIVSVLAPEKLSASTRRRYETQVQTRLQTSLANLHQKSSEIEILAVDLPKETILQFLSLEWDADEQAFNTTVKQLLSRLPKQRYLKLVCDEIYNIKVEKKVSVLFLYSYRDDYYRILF
GCN2 kinase, sequence (Q9P2K8 whole entry): as above

The term IC50 denotes the midpoint of a concentration-inhibition curve. For the compound `CC1CN(c2ccnc(-c3cnc4cnc(Cl)cn34)n2)CC(CNS(C)(=O)=O)C1(F)F` (stereo not shown) [IV-5, N-((1-(2-(6-Chloroimidazo[1,2-a]pyrazin-3-yl)pyrimidin-4-yl)-4,4-difluoro-5-methylpiperidin-3-yl)methyl)methanesulfonamide], in experiment [1] (setting [3]), the Ki lay within 10 to 100 nM. The same compound came in with an IC50 in experiment [2] (setting [4]) of 500 to 5000 nM.
In turn, `CC1(C)CN(c2cc(-c3cnc4ccc(C(F)F)nn34)ccn2)C[C@H](CNS(C)(=O)=O)O1` [II-148, (R)—N-((4-(4-(6-(Difluoromethyl)imidazo[1,2-b]pyridazin-3-yl)pyridin-2-yl)-6,6-dimethylmorpholin-2-yl)methyl)methanesulfonamide] showed a Ki in experiment [1] (setting [5]) of less than 10 nM. In addition, in experiment [2] (setting [6]), the IC50 was less than 500 nM.
In experiment [1] (setting [3]), `FC(F)(F)c1cn2c(-c3nccc(N4CCC(c5c[nH]nc5C(F)(F)F)C4)n3)cnc2cn1` (single isomer, unassigned) [IV-629, 6-(Trifluoromethyl)-3-(4-(3-(3-(trifluoromethyl)-1H-pyrazol-4-yl)pyrrolidin-1-yl)pyrimidin-2-yl)imidazo[1,2-a]pyrazine] showed a Ki of less than 10 nM. Also, in experiment [2] (setting [4]), the IC50 was in the range of 500 to 5000 nM.
The corresponding values for `CC1CN(c2ccnc(-c3cnc4cnc(C(F)(F)F)cn34)n2)CC(c2cn[nH]c2)O1` (single isomer, unassigned) [IV-14, 2-Methyl-6-(1H-pyrazol-4-yl)-4-(2-(6-(trifluoromethyl)imidazo[1,2-a]pyrazin-3-yl)pyrimidin-4-yl)morpholine] are less than 10 nM and less than 500 nM.
With `C[C@H]1CN(c2cc(-c3cnn4cc(F)c(C(F)F)nc34)ncn2)C[C@@H](CNS(C)(=O)=O)C1(F)F` [III-11, N-[[(3S,5S)-1-[6-[5-(Difluoromethyl)-6-fluoro-pyrazolo[1,5-a]pyrimidin-3-yl]pyrimidin-4-yl]-4,4-difluoro-5-methyl-3-piperidyl]methyl]methanesulfonamide], the Ki in experiment [1] (setting [7]) was less than 10 nM. In experiment [2] (setting [8]), the concentration for half-maximal inhibition (IC50) was less than 500 nM.
In turn, `O=C(N[C@H]1CCCN(c2ccnc(-c3cnc4cnc(C(F)(F)F)cn34)n2)C1)c1cn[nH]c1` [IV-733] gave a Ki in experiment [1] (setting [3]) of more than 1000 nM. Moreover, the IC50 in experiment [2] (setting [4]) was more than 5000 nM.
For `OCC1CCCCN(c2ccnc(-c3cnc4cnc(C(F)F)cn34)n2)C1` (stereo not shown) [IV-88, (1-(2-(6-(Difluoromethyl)imidazo[1,2-a]pyrazin-3-yl)pyrimidin-4-yl)azepan-3-yl)methanol], in that order: 100 to 1000 nM and more than 5000 nM.
Compound `NC(=O)C1CN(c2cc(-c3cnc4ccc(C(F)F)nn34)ncn2)c2ccccc21` (stereo not shown) [II-16, 1-(6-(6-(Difluoromethyl)imidazo[1,2-b]pyridazin-3-yl)pyrimidin-4-yl)indoline-3-carboxamide] gave a Ki in experiment [1] (setting [5]) of 10 to 1000 nM. In experiment [2] (setting [6]), this compound had a half-inhibitory concentration (IC50) of more than 5000 nM.
Regarding `CS(=O)(=O)NCC1CCCN(c2cc(-c3cnn4ccc(C(F)F)nc34)ncn2)C1` (stereo not shown) [III-2, N-[[1-[6-[5-(Difluoromethyl)pyrazolo[1,5-a]pyrimidin-3-yl]pyrimidin-4-yl]-3-piperidyl]methyl]methanesulfonamide], the Ki in experiment [1] (setting [7]) was less than 10 nM. Also, the IC50 in experiment [2] (setting [8]) was less than 500 nM.
With `CS(=O)(=O)NCC1CCCN(c2cc(-c3cnc4ccc(C(F)F)nn34)ccc2C#N)C1` (stereo not shown) [II-82, N-((1-(2-Cyano-5-(6-(difluoromethyl)imidazo[1,2-b]pyridazin-3-yl)phenyl)piperidin-3-yl)methyl)methanesulfonamide], the Ki in experiment [1] (setting [5]) was 10 to 1000 nM. This compound gave an IC50 in experiment [2] (setting [6]) of 500 to 5000 nM.
`NC(=O)c1cc(C2CCCN(c3ccnc(-c4cnc5cnc(C(F)F)cn45)n3)C2)n[nH]1` (stereo not shown) [IV-94, 3-(1-(2-(6-(Difluoromethyl)imidazo[1,2-a]pyrazin-3-yl)pyrimidin-4-yl)piperidin-3-yl)-1H-pyrazole-5-carboxamide] had a Ki in experiment [1] (setting [3]) of 100 to 1000 nM. Besides, the IC50 in experiment [2] (setting [4]) is more than 5000 nM.
As for `O=C1CCN(c2cc(-c3cnc4ccc(C(F)F)nn34)ccn2)CCN1` [II-164, 1-(4-(6-(Difluoromethyl)imidazo[1,2-b]pyridazin-3-yl)pyridin-2-yl)-1,4-diazepan-5-one], in experiment [1] (setting [5]), the Ki was 10 to 1000 nM. Further, in experiment [2] (setting [6]), the 50% inhibitory concentration (IC50) was 500 to 5000 nM.
For `CS(=O)(=O)NCC1CN(c2cc(-c3cnc4ccc(C(F)F)nn34)ccn2)CCN1C1COC1` (stereo not shown) [II-81, N-((4-(4-(6-(Difluoromethyl)imidazo[1,2-b]pyridazin-3-yl)pyridin-2-yl)-1-(oxetan-3-yl)piperazin-2-yl)methyl)methanesulfonamide], in that order: 10 to 1000 nM and more than 5000 nM.
For `O=S(=O)(N[C@H]1CCCN(c2cc(-c3cnc4ccc(C(F)F)nn34)ncn2)C1)C1CNC1` [II-435, (S)—N-(1-(6-(6-(Difluoromethyl)imidazo[1,2-b]pyridazin-3-yl)pyrimidin-4-yl)piperidin-3-yl)azetidine-3-sulfonamide], in that order: 10 to 1000 nM and more than 5000 nM.
The corresponding values for `CNc1cc(-c2cnc3ccc(C(F)F)nn23)cc(N2CCCC(CNS(C)(=O)=O)C2)n1` (stereo not shown) [II-116, N-((1-(4-(6-(Difluoromethyl)imidazo[1,2-b]pyridazin-3-yl)-6-(methylamino)pyridin-2-yl)piperidin-3-yl)methyl)methanesulfonamide] are less than 10 nM and 500 to 5000 nM.
`CC1CN(c2ccnc(-c3cnc4sc(C(F)(F)F)cn34)n2)C(C)C(c2cn[nH]c2)N1` (single isomer, unassigned) [Compound V-11, 5-[4-[2,5-Dimethyl-3-(1H-pyrazol-4-yl)piperazin-1-yl]pyrimidin-2-yl]-2-(trifluoromethyl)imidazo[2,1-b]thiazole] gave a Ki in experiment [1] (setting [9]) of less than 10 nM. The IC50 in experiment [2] (setting [10]) was less than 500 nM.
With `O=C1NCCN2CCN(c3ccnc(-c4cnc5cnc(C(F)F)cn45)n3)CC12` (stereo not shown) [IV-86, 8-(2-(6-(Difluoromethyl)imidazo[1,2-a]pyrazin-3-yl)pyrimidin-4-yl)hexahydro-2H-pyrazino[1,2-a]pyrazin-1(6H)-one], the Ki in experiment [1] (setting [3]) was in the range of 100 to 1000 nM. The IC50 in experiment [2] (setting [4]) is more than 5000 nM.
In experiment [1] (setting [5]), `C[C@@H]1CN(c2cc(-c3cnc4ccc(C(F)F)nn34)ncn2)CC(C(N)=O)O1` (stereo partly drawn) [II-201, (6R)-4-(6-(6-(Difluoromethyl)imidazo[1,2-b]pyridazin-3-yl)pyrimidin-4-yl)-6-methylmorpholine-2-carboxamide] gave a Ki of 10 to 1000 nM. In experiment [2] (setting [6]), the IC50 is more than 5000 nM.
As to `CC1CN(c2cncc(-c3cnc4cnc(C(F)(F)F)cn34)n2)C(C)C(c2cn[nH]c2)N1` (single isomer, unassigned) [IV-650, 3-(6-(2,5-Dimethyl-3-(1H-pyrazol-4-yl)piperazin-1-yl)pyrazin-2-yl)-6-(trifluoromethyl)imidazo[1,2-a]pyrazine], the Ki in experiment [1] (setting [3]) was less than 10 nM. The same compound returned an IC50 in experiment [2] (setting [4]) of 500 to 5000 nM.
`CNc1cc(-c2cnc3ccc(C(F)F)nn23)cc(N2CCC[C@H](CNS(C)(=O)=O)C2)n1` [II-68, (S)—N-((1-(4-(6-(Difluoromethyl)imidazo[1,2-b]pyridazin-3-yl)-6-(methylamino)pyridin-2-yl)piperidin-3-yl)methyl)methanesulfonamide] came in with a Ki in experiment [1] (setting [5]) of less than 10 nM. In experiment [2] (setting [6]), this compound displayed an IC50 of 500 to 5000 nM.
For `C[C@H]1CN(c2cc(-c3cnc4ccc(C(F)F)nn34)ncc2F)C[C@@H](CNS(C)(=O)=O)C1(F)F` [II-270, N-[[(3S,5S)-1-[2-[6-(Difluoromethyl)imidazo[1,2-b]pyridazin-3-yl]-5-fluoro-4-pyridyl]-4,4-difluoro-5-methyl-3-piperidyl]methyl]methanesulfonamide], in that order: less than 10 nM and 500 to 5000 nM.
The corresponding values for `CNc1cc(-c2cnc3ccc(C(F)F)nn23)cc(N2CC(C)C(F)(F)C(CNS(C)(=O)=O)C2)n1` (stereo not shown) [II-64, N-((1-(4-(6-(Difluoromethyl)imidazo[1,2-b]pyridazin-3-yl)-6-(methylamino)pyridin-2-yl)-4,4-difluoro-5-methylpiperidin-3-yl)methyl)methanesulfonamide] are less than 10 nM and less than 500 nM.
As for `NC(=O)c1cn2c(-c3cccc(N4CCN5C(=O)CCC[C@H]5C4)n3)cnc2cn1` [IV-228, (S)-3-(6-(6-Oxooctahydro-2H-pyrido[1,2-a]pyrazin-2-yl)pyridin-2-yl)imidazo[1,2-a]pyrazine-6-carboxamide], in experiment [1] (setting [3]), the Ki fell in the range of 10 to 100 nM. Also, the IC50 in experiment [2] (setting [4]) was in the range of 500 to 5000 nM.
In turn, `CC1CN(c2ccnc(-c3cnc4sc(C(F)(F)F)cn34)n2)C(C)C(c2cn[nH]c2)N1` (single isomer, unassigned) [Compound V-12, 5-[4-[2,5-Dimethyl-3-(1H-pyrazol-4-yl)piperazin-1-yl]pyrimidin-2-yl]-2-(trifluoromethyl)imidazo[2,1-b]thiazole] yielded a Ki in experiment [1] (setting [9]) of 100 to 1000 nM. The IC50 in experiment [2] (setting [10]) fell in the range of 500 to 5000 nM.
In turn, `FC(F)c1ccc2ncc(-c3cc(N4CCC(c5c[nH]cn5)C4)ncn3)n2n1` (stereo not shown) [II-203, 3-(6-(3-(1H-imidazol-4-yl)pyrrolidin-1-yl)pyrimidin-4-yl)-6-(difluoromethyl)imidazo[1,2-b]pyridazine] gave a Ki in experiment [1] (setting [5]) of 10 to 1000 nM. The compound further had an IC50 in experiment [2] (setting [6]) of more than 5000 nM.
In experiment [1] (setting [3]), `O=C1CCCC2CN(c3ccnc(-c4cnc5cnc(C(F)F)cn45)n3)CCN12` (stereo not shown) [IV-99, 2-(2-(6-(Difluoromethyl)imidazo[1,2-a]pyrazin-3-yl)pyrimidin-4-yl)octahydro-6H-pyrido[1,2-a]pyrazin-6-one] came in with a Ki of 100 to 1000 nM. The compound also returned an IC50 in experiment [2] (setting [4]) of more than 5000 nM.

Source of the values: patent US10988477B2 (Merck Patent GmbH, priority 2018, dated 2021).
